Residues, ends and D or L forms follow the SMILES beside them.

Data set [1] deals with normal human epidermal keratinocytes (NHEKs). Nature of the data set: LDH release cytotoxicity assay in keratinocytes. In kind it is cell-based. The conditions noted are these: minimal concentration giving 50% LDH release by NHEKs. The gist of the method:
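Normal human epidermal keratinocytes were exposed to LL-34 parent and alanine-substituted peptides. Cytotoxicity was read as LDH release in fresh culture supernatants after treatment, using a commercial kit, and reported as the minimal concentration showing toxicity.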
Background: Release of lactate dehydrogenase indicates damage to the cell membrane.

The test system of data set [2] is NHEKs, IL-6 secretion in response to U1 dsRNA. Kind of data set: IL-6 secretion ELISA in NHEKs. In kind it is cell-based, human. The conditions noted are these: U1 dsRNA 2.5 μg/ml + peptide 2 μM, 18 h, n = 3. The gist of the method: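 NHEKs (also HDMECs) exposed to LL-34 parent or alanine-scan peptides at 2 μM, alone or with U1 dsRNA (2.5 μg/ml), for 18 h. Secreted IL-6 in supernatant quantified by sandwich ELISA (n = 3).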
For orientation: An ELISA detects its analyte on a solid surface through an enzyme-linked reagent.

The test system of data set [3] is NHEKs, IL6, IFNB1, TSLP, CXCL10 mRNA. Nature of the data set: qRT-PCR gene expression in NHEKs. In kind it is cell-based, human. The conditions noted are these: 18 h / 8 h (Fig. 1 legend), n = 3; for Gene expression of IL6, IFNB1, and CXCL10, cotreatment with U1 dsRNA: U1 dsRNA 2.5 μg/ml + peptide 2 μM; for Gene expression of TSLP, peptide alone / Basal expression of IL6, IFNB1, and CXCL10, peptide alone: peptide 2 μM alone; for Gene expression of TSLP, peptide alone: GAPDH reference. As to the method: Protein levels of human IL-6 were analyzed from cell supernatant with ELISA (n = 3). Corresponding MIC values of LL-34 peptides L1A–R34A against Staphylococcus aureus USA300 are shown in the heat map. B, human dermal endothelial cells (HDMECs) were treated with either U1 dsRNA (2.5 μg/ml) or a combination of U1 dsRNA (2.5 μg/ml) and LL-34 peptides (Pep 1–Pep 34 and Pep–parent LL-34) at 2 μM for 18 h. IL-6 ELISA results are shown (n = 3). Green bars denote loss of IL-6 protein secretion compared with parent control shown in red. C, helical wheel plot for LL-34. Amino acids with green circles denote specific residues where replacement with an alanine caused the loss of IL-6 secretion compared with parent LL-34 peptide in NHEKs cotreated with U1 dsRNA. D, in the helical wheel plot for LL-34, circled green amino acids indicate that a substitution caused a loss of vetting in HDMEC. E–H, NHEKs were treated with LL-34-parent peptide (LL-34-P), LL-34-F5A, LL-34-I24A, LL-34-F27A, and LL-34-L31A at 2 μM, either individually or in combination with U1 dsRNA (2.5 μg/ml) for 8 h. Gene expression of IL-6, IFNB1, TSLP, and CXCL10 was assessed with qRT-PCR. GAPDH was used as a reference gene (n = 3) (∗p < 0.05; ∗∗∗∗p < 0.0001). One way-ANOVA was used. IL-6, interleukin 6; LL-34, 34-amino acid peptide; MIC, minimum inhibitory concentration, ns, not significant.
We further looked at mRNA abundance by quantitative RT-PCR (qRT-PCR) to evaluate gene expression for type 1 interferon IFNB1, chemokine CXCL10, and cytokines TSLP and IL6 in NHEKs treated with selected LL-34 parent, LL-34—F5A, I24A, F27A, and L31A—peptides either alone or in combination with U1 dsRNA for 18 h (Fig. 1, E–H).
RNA extracted from cells (Pure Link RNA Isolation Kit; Life Technologies) was quantified on the Nanodrop 2000/200C Spectrophotometer (Thermo Fisher Scientific). About 500 ng of purified RNA was used to synthesize complementary DNA with iScript cDNA Synthesis Kit (Bio-Rad). Predeveloped Taqman (Thermo Fisher Scientific) gene expression assays were used to evaluate mRNA transcript levels. Taqman cycling conditions were used as previously described ([9], [45]). All experiments were performed on a CFX96 system (Bio-Rad). Fold change relative to GAPDH was calculated using the Livak ΔΔCt method ([46]).
For orientation: Quantitative PCR measures a nucleic acid by following its amplification.

Consider `CC[C@H](C)[C@H](NC(=O)[C@H](CCCCN)NC(=O)[C@H](CCC(=O)O)NC(=O)[C@H](CCCCN)NC(=O)[C@H](CO)NC(=O)[C@H](CCCCN)NC(=O)[C@H](CCCNC(=N)N)NC(=O)[C@H](Cc1ccccc1)NC(=O)[C@H](Cc1ccccc1)NC(=O)[C@H](CC(=O)O)NC(=O)CNC(=O)[C@H](CC(C)C)NC(=O)[C@@H](N)CC(C)C)C(=O)NCC(=O)N[C@@H](CCCCN)C(=O)N[C@@H](CCC(=O)O)C(=O)N[C@@H](Cc1ccccc1)C(=O)N[C@@H](CCCCN)C(=O)N[C@@H](CCCNC(=N)N)C(=O)N[C@H](C(=O)N[C@H](C(=O)N[C@@H](CCC(N)=O)C(=O)N[C@@H](CCCNC(=N)N)C(=O)N[C@H](C(=O)N[C@@H](CCCCN)C(=O)N[C@@H](CC(=O)O)C(=O)N[C@@H](Cc1ccccc1)C(=O)N[C@@H](CC(C)C)C(=O)N[C@@H](CCCNC(=N)N)C(=O)N[C@@H](CC(N)=O)C(=O)N[C@@H](C)C(=O)N[C@H](C(=O)N1CCC[C@H]1C(=O)N[C@@H](CCCNC(=N)N)C(=O)O)C(C)C)[C@@H](C)CC)C(C)C)[C@@H](C)CC` [LL-34—L31A] (H-LLGDFFRKSKEKIGKEFKRIVQRIKDFLRNAVPR-OH), for which the “Minimal cytotoxic concentration in NHEK (LD50)” value in data set [1] is 10 µM. For the same compound, the “IL-6 protein secretion, cotreatment with U1 dsRNA, vs U1 dsRNA + LL-34 parent” value in data set [2] is “reduced secretion of IL-6 protein”. In data set [3], the “Gene expression of IL6, IFNB1, and CXCL10, cotreatment with U1 dsRNA” value is reported as “reduction in gene expression”; the “Gene expression of TSLP, peptide alone” value is “increased gene expression of TSLP”; the “Basal expression of IL6, IFNB1, and CXCL10, peptide alone” value is on record as “not affected”.
On the same counts, the results for `CC[C@H](C)[C@H](NC(=O)[C@H](CCCCN)NC(=O)[C@H](CCC(=O)O)NC(=O)[C@H](CCCCN)NC(=O)[C@H](CO)NC(=O)[C@H](CCCCN)NC(=O)[C@H](CCCNC(=N)N)NC(=O)[C@H](Cc1ccccc1)NC(=O)[C@H](Cc1ccccc1)NC(=O)[C@H](CC(=O)O)NC(=O)CNC(=O)[C@H](CC(C)C)NC(=O)[C@@H](N)CC(C)C)C(=O)NCC(=O)N[C@@H](CCCCN)C(=O)N[C@@H](CCC(=O)O)C(=O)N[C@@H](Cc1ccccc1)C(=O)N[C@@H](CCCCN)C(=O)N[C@@H](CCCNC(=N)N)C(=O)N[C@H](C(=O)N[C@H](C(=O)N[C@@H](CCC(N)=O)C(=O)N[C@@H](CCCNC(=N)N)C(=O)N[C@@H](C)C(=O)N[C@@H](CCCCN)C(=O)N[C@@H](CC(=O)O)C(=O)N[C@@H](Cc1ccccc1)C(=O)N[C@@H](CC(C)C)C(=O)N[C@@H](CCCNC(=N)N)C(=O)N[C@@H](CC(N)=O)C(=O)N[C@@H](CC(C)C)C(=O)N[C@H](C(=O)N1CCC[C@H]1C(=O)N[C@@H](CCCNC(=N)N)C(=O)O)C(C)C)C(C)C)[C@@H](C)CC` [LL-34—I24A] (H-LLGDFFRKSKEKIGKEFKRIVQRAKDFLRNLVPR-OH) are 20 µM, “reduced secretion of IL-6 protein”, “reduction in gene expression”, “increased gene expression of TSLP” and “not affected”.
